For the data set, the system named is S. aureus. Put plainly: S. aureus growth (OD600). Type of data set: cell-based. To be noted: S. aureus WT and QS mutant with vesicles, 12 hr. The procedure:
Microtiter plate vesicle lysis assays. Portions of media (2 or 10 mL) were inoculated with individual bacterial colonies and allowed to shake overnight. From these overnight cultures, subcultures were prepared by diluting the cultures 1:50 (v/v) in fresh BHI for S. aureus or 1:100 (v/v) in fresh LB for P. aeruginosa. An aliquot of each subculture (178 μL) was added to 20 μL of vesicle suspension and 2 μL of compound solution (dissolved in DMSO at 100× working concentration) in a clear-bottomed, black 96-well microtiter plate (Corning 3904). For controls, DMSO (vehicle) or Triton X-100 (1% final concentration) was substituted for compound. Plate covers were coated with an aqueous solution of 0.05% Triton X-100 and 20% ethanol (Brewster, 2003) to prevent the accumulation of condensation. Plates were incubated in a Biotek Synergy 2 microplate reader running Gen5 1.05 software at 37° C. with shaking at the high-speed setting. Fluorescence (excitation 500 nm, emission 540 nm) and OD600 (absorbance at 600 nm) measurements were recorded every 15 minutes for 12 hours. All experiments were performed in technical triplicate in a single microtiter plate. Biological triplicates were then obtained over three days. GraphPad Prism software (v. 9) was used to generate curves and calculate standard error.
High-throughput screening and follow-up analysis protocols. Test compounds and positive control 1 were delivered in 2.5 nL aliquots of DMSO with an Echo 550 liquid handler (LabCyte Inc.) into black 384-well microtiter plates (Corning). All test compounds were tested at 10 μM; positive control 1 was tested at 250 nM. DMSO was used as a negative control. Overnight cultures (2 mL) of WT S. aureus (RN6390b) were grown at 37° C. with shaking at 200 rpm. These cultures were diluted 1:500 (v/v) in fresh BHI medium, at which point vesicle solutions were added to a final concentration of 1 mM phospholipid (as determined by ^31P NMR analyses). This vesicle-cell mixture was then added to the 384-well microtiter plates with a Multidrop 384 liquid-dispensing robot (Thermo Scientific) for a total volume of 50 μL per well. Plates were incubated statically for ˜24 hr at 37° C., at which point fluorescence (excitation 483, emission 530) and OD600 (absorbance at 600 nm) measurements were made using a CLARIOstarR Plus microtiter plate reader (BMG Labtech) running MARS data analysis software. Scatter plots were generated using the Collaborative Drug Discovery Vault informatics platform. […] Fluorescence (excitation 510, emission 544) and OD600 measurements were acquired with a PerkinElmer EnVision microtiter plate reader running Envision Manager software. […]

These results are taken from patent publication US12070445B2, “System and assay for monitoring production/release of membrane-lytic toxins in bacteria and compounds for modulating same” (priority 2021, dated 2024).

Take `CC(C)c1ccc(S(=O)(=O)c2nnn3c2nc(O)c2ccccc23)cc1` [Compound 6, savirin]: the “impact on cell growth” value is “some effects on growth at later time points”.
